Assay results reported in the supplement of paper PMC4858399.

Legend:
Details in all cases: exposure time 48 h
[1] = tested on: Caenorhabditis elegans N2; experiment: lowest effective concentration for larval growth inhibition (size below effect threshold); higher = less potent
In short: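 In 96-well plates, 50 C. elegans N2 L1 larvae per well were cultured at 20°C for 48 h in K-medium with killed bacteria and 1% DMSO, plus the chemical at 0.5, 1, 5, 10, 50, 100 or 200 µM. Size was measured as per-worm extinction on a Biosort and log-transformed into well means. Taking the first dose where the plate-adjusted mean size sits under 5.665 and stays there at higher doses gives the lowest effective concentration.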

[2] = tested on: Caenorhabditis elegans N2; experiment: AC50 for larval growth inhibition (Hill fit); higher = less potent
In short: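 Synchronised C. elegans N2 L1 larvae, 50 per well in 96-well plates, were grown at 20°C for 48 h in K-medium with killed OP50, 1% DMSO and 0.5–200 µM chemical. Worm size was read on a COPAS Biosort as extinction, log-transformed and averaged per well, and only wells holding at least 10 worms were kept. AC50 was obtained by a constrained Hill fit using weighted genetic-algorithm regression, with out-of-range values censored.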

[3] = tested on: Caenorhabditis elegans N2; experiment: mean nematode size ln(EXT) after 48 h, plate-adjusted (DMSO control set to 6) (ln(EXT), control-adjusted); higher = larger nematodes / less growth inhibition
In short: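 Synchronised C. elegans N2 L1 larvae were grown for 48 h at 20°C in K-medium containing killed OP50, 1% DMSO and 0.5–200 µM chemical, at 50 per well and 4–6 wells per treatment. The Biosort recorded extinction for each worm, and a growth model removed debris. Worm size was obtained by natural-logging these values and averaging them per well. For plate adjustment, the vehicle control mean was subtracted and 6 was added.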

Structure (SMILES) | lowest effective concentration [1] [µM] | AC50 for larval growth inhibition [2] [µM] | mean nematode size ln(EXT) (ln) ([3]; 0.5 µM) | mean nematode size ln(EXT) (ln) ([3]; 1 µM) | mean nematode size ln(EXT) (ln) ([3]; 5 µM) | mean nematode size ln(EXT) (ln) ([3]; 10 µM) | mean nematode size ln(EXT) (ln) ([3]; 50 µM) | mean nematode size ln(EXT) (ln) ([3]; 100 µM) | mean nematode size ln(EXT) (ln) ([3]; 200 µM)
CC(=O)[O][Hg][c]1ccccc1 [Phenylmercuric acetate] | ≤ 0.5 | 1.02 | 5.43 | 5.07 | 4.25 | 3.93 | 4.09 | 4.09 | 3.02
CCOP(=S)(OCC)SCSCC [Phorate] | 100 | > 200 | 5.9 | 5.87 | 5.8 | 5.76 | 5.68 | 5.55 | 5.21
CCOP(=S)(OCC)SCn1c(=O)oc2cc(Cl)ccc21 [Phosalone] | 10 | 9.77 | 5.76 | 5.7 | 5.97 | 4.73 | 4.26 | 4.06 | 3.72
COP(=S)(OC)SCN1C(=O)c2ccccc2C1=O [Phosmet] | 10 | > 200 | 5.89 | 5.76 | 5.86 | 5.61 | 5.66 | 5.52 | 5.02
CO/C=C(/C(=O)OC)c1ccccc1COc1cccc(C(F)(F)F)n1 [Picoxystrobin] | 50 | 48.6 | 5.95 | 5.83 | 5.92 | 5.89 | 4.97 | 4.26 | 4.61
CCCCOCCOCCOCc1cc2c(cc1CCC)OCO2 [Piperonyl butoxide] | 50 | 76.9 | 5.87 | 5.86 | 5.8 | 5.86 | 5.48 | 5.43 | 5.41
CCN(CC)c1nc(C)cc(OP(=S)(OC)OC)n1 [Pirimiphos-methyl] | 200 | 124 | 5.93 | 5.93 | 5.83 | 5.92 | 6.01 | 6.01 | 4.12
O=S(=O)(O)C(F)(F)C(F)(F)C(F)(F)C(F)(F)C(F)(F)C(F)(F)F [Potassium perfluorohexanesulfonate] | 100 | > 200 | 5.85 | 5.87 | 5.87 | 5.85 | 5.76 | 5.55 | 5.31
C#CCC1=C(C)C(OC(=O)C2C(C=C(C)C)C2(C)C)CC1=O (stereo not drawn) [Prallethrin] | 200 | 188 | 5.85 | 6.08 | 6.07 | 6.04 | 5.94 | 6.04 | 4.41
C[C@]12C=CC(=O)C=C1CC[C@@H]1[C@@H]2C(=O)C[C@@]2(C)[C@H]1CC[C@]2(O)C(=O)CO [Prednisone] | 100 | 52.4 | 6.09 | 5.82 | 5.85 | 5.87 | 5.86 | 5.47 | 5.62
CCCN(CCOc1c(Cl)cc(Cl)cc1Cl)C(=O)n1ccnc1 [Prochloraz] | 200 | 153 | 6.11 | 6.19 | 6.19 | 6.29 | 5.98 | 5.98 | 3.41
CCCN(CCC)c1c([N+](=O)[O-])cc(C(F)(F)F)c(N)c1[N+](=O)[O-] [Prodiamine] | 200 | > 200 | 6.07 | 6.18 | 6.02 | 5.75 | 5.99 | 5.92 | 5.1
CCCSP(=O)(OCC)Oc1ccc(Br)cc1Cl (stereo not drawn) [Profenofos] | 50 | 56.4 | 5.75 | 6.26 | 6.17 | 6.04 | 4.95 | 3.31 | 3.04
CC(=O)[C@H]1CC[C@H]2[C@@H]3CCC4=CC(=O)CC[C@]4(C)[C@H]3CC[C@]12C [Progesterone] | 200 | > 200 | 5.84 | 5.84 | 5.86 | 5.9 | 5.72 | 5.95 | 5.58
COc1nc(NC(C)C)nc(NC(C)C)n1 [Prometon] | 100 | > 200 | 5.72 | 5.83 | 5.84 | 5.75 | 5.87 | 5.61 | 5.53
CSc1nc(NC(C)C)nc(NC(C)C)n1 [Prometryn] | 200 | > 200 | 5.83 | 5.76 | 5.87 | 6 | 5.79 | 5.86 | 5.37
CCC(=O)Nc1ccc(Cl)c(Cl)c1 [Propanil] | 200 | > 200 | 5.8 | 5.75 | 5.7 | 5.93 | 6 | 5.96 | 5.04
COCC(C)OCC(C)O (stereo not drawn) [Propanol, 1 (or 2)-(2-methoxymethylethyoxy)-] | 200 | > 200 | 5.9 | 5.9 | 5.88 | 5.85 | 5.92 | 5.82 | 5.66
C#CCOS(=O)OC1CCCCC1Oc1ccc(C(C)(C)C)cc1 (stereo not drawn) [Propargite] | 200 | 150 | 5.95 | 6.19 | 5.99 | 6.05 | 5.82 | 5.88 | 3.35
CC(C)Nc1nc(Cl)nc(NC(C)C)n1 [Propazine] | 200 | 102 | 5.99 | 6.05 | 6.03 | 6.09 | 6.04 | 5.83 | 5.55
CCNP(=S)(OC)O/C(C)=C/C(=O)OC(C)C (stereo not drawn) [Propetamphos] | 50 | > 200 | 5.88 | 5.88 | 5.75 | 5.71 | 4.95 | 5.45 | 3.98
CCCC1COC(Cn2cncn2)(c2ccc(Cl)cc2Cl)O1 (stereo not drawn) [Propiconazole] | 200 | > 200 | 6.02 | 6.09 | 6.16 | 6.21 | 5.95 | 5.93 | 5.05
